One assay deals with HT29 cell line. Description: BrdU cell growth inhibition, HT29. The format is cell-based, human. As to conditions: Homo sapiens; for activity at 0.05 µM / activity at 0.5 µM / activity at 5 µM: HT-29, read-out: HT-29 Growth, % of Control Mean, n = 3; for activity at 0.05 µM: 50 nM; for activity at 0.5 µM: 500 nM; for GI50: HT-29, HT29 (Colon) cells, read-out: GI50. As for the experimental part: (§1) The GI50s for several of the compounds of the invention were assayed as described herein.
The HT29 cell line is a NCI standard human colon carcinoma cell line.
(§2) In the BrdU Assay for cell growth inhibition, quantitation of cell proliferation was based on the measurement of BrdU incorporation during DNA synthesis. The Cell Proliferation ELISA BrdU assay kit (colorimetric) was obtained from Roche Applied Science and performed as per vendor instructions.
(§3) The growth inhibition (GI) is determined from the formula GI=(T0−Tn×100/T0−CONn) where T0 is the BrdU growth of untreated cells at time “0”, Tn is the BrdU growth of treated cells at day “n” and CONn is the control BrdU growth of control cells at day “n”. The GI50 was extrapolated and the data plotted using XL-Fit 4.0 software.
(§4) For 96 well culture plate experiments, c-Src 3T3 medium was supplemented with 10 mM HEPES buffer. HT-29 cells were seeded in standard tissue culture 96-well plates and c-Src 3T3 cells were seeded in 96-well plates coated with Poly-D-lysine (BIOCOAT™). To increase CO2 diffusion, c-Src 3T3 96-well plates were incubated with their lids raised by ˜2 mm using sterile rubber caps.
(§5) Samples were reconstituted in DMSO at 20 mM and intermediate dilutions made using DMEM containing 10% FBS. […] Plates were assayed for BrdU and the data analyzed as above for GI50.
(§6) All compounds were initially prepared as 20 mM DMSO stock solutions and then diluted into buffer for the in vitro tumor growth assays. NG means no cell growth beyond the control and T means the number of cells in the drug treated wells was less than in the control (i.e. net cell loss).
Growth Inhibition. […] T1 values≤T0 values were designated as T, cytotoxicity.

A further assay deals with c-Src 3T3 cells. Description: BrdU cell growth inhibition, c-Src 3T3. As to conditions: for activity at 0.1 µM / activity at 1 µM / activity at 10 µM: NIH3T3, read-out: c-Src 3T3 Growth, % of Control Mean, n = 3; for activity at 0.1 µM: 100 nM; for GI50: c-Src 3T3 (c-Src527F/NIH3T3) cells. The format is cell-based, mouse. As for the experimental part: as §1
The cells were routinely cultured in DMEM supplemented with Fetal Bovine Serum (2.0% v/V), L-glutamine (2 mM) and Sodium Pyruvate (1 mM).
as §2, §3, §4, §5, §6

SMILES strings stand for the structures. Where two headings read alike, the source gives them in different places. Where only a bound is given, the exact number is not on record here.

On to `O=C(Cc1ccc(-c2ccc(C(=O)O)cc2)nc1)NCc1cccc(F)c1` [KX1-323, 4-{5-[(3-Fluoro-benzylcarbamoyl)-methyl]-pyridin-2-yl}-benzoic acid], for which, in the assay on HT29 cell line, the activity at 0.05 µM was determined as 106%, the activity at 0.5 µM amounted to 107% and the activity at 5 µM was determined as 60.8%. In addition, in the assay on c-Src 3T3 cells (Mus musculus), the activity at 0.1 µM amounted to 96.6%, the activity at 1 µM amounted to 97.3% and the activity at 10 µM was 93.2%.

`CC(C)COc1cc(F)cc(CNC(=O)Cc2ccc(-c3ccc(CN4CCOCC4)cc3)cn2)c1` [KX2-363]: in the assay on HT29 cell line, the activity at 0.05 µM was found to be 92%, the activity at 0.5 µM was 67% and the activity at 5 µM is below 0%. Moreover, in the assay with c-Src 3T3 cells (Mus musculus), the activity at 0.1 µM came to 92%, the activity at 1 µM amounted to 70% and the activity at 10 µM came out at 100%.

On to `CCOc1ccc(-c2ccc(CC(=O)NCc3cc(F)cc(N4CCOCC4)c3)nc2)cc1` [KX2-382], for which, in the assay with HT29 cell line, the activity at 0.05 µM was determined as 80%, the activity at 0.5 µM was determined as 97% and the activity at 5 µM turned out to be 50%. In the assay with c-Src 3T3 cells (Mus musculus), the activity at 0.1 µM was 117%, the activity at 1 µM is 114% and the activity at 10 µM was 103%.

With `CCOc1ccc(-c2ccc(CC(=O)NCc3cc(F)cc(N4CCCCC4)c3)nc2)cc1` [KX2-379], in the assay on HT29 cell line, the activity at 0.05 µM is 89%, the activity at 0.5 µM worked out at 88% and the activity at 5 µM is below 0%. For the same molecule, in the assay on c-Src 3T3 cells (Mus musculus), the activity at 0.1 µM was determined as 106%, the activity at 1 µM came out at 104% and the activity at 10 µM is below 0%.

Regarding `CN(Cc1cccc(F)c1)C(=O)Cc1ccc(-c2ccccc2)cc1` [KX1-312, N-(3-fluorobenzyl)-N-methyl-4-biphenylacetamide], in the assay on HT29 cell line, the activity at 0.05 µM turned out to be 93.7%, the activity at 0.5 µM amounted to 67.6% and the activity at 5 µM came to 33.7%. For the same molecule, in the assay on c-Src 3T3 cells (Mus musculus), the activity at 0.1 µM came out at 98.5%, the activity at 1 µM was determined as 94.5% and the activity at 10 µM came to 12.1%.

Broadly, the GI50 is the concentration at which growth is held to half of that of the control. With `CC(C)COc1cc(F)cc(CNC(=O)Cc2ccc(-c3ccc(OCCN4CCOCC4)cc3)cn2)c1` [KX2-387], the GI50 is 1860 nM in the assay with HT29 cell line and “inactive” in the assay on c-Src 3T3 cells.

For the molecule `O=C(Cc1ccc(-c2ccccc2)c(F)c1)NCc1cccc(F)c1` [KX1-319, N-(3-Fluoro-benzyl)-2-(2-fluoro-biphenyl-4-yl)-acetamide], in the assay with HT29 cell line, the activity at 0.05 µM was determined as 101%, the activity at 0.5 µM was below 0% and the activity at 5 µM was below 0%. For the same molecule, in the assay with c-Src 3T3 cells (Mus musculus), the activity at 0.1 µM is 88.2%, the activity at 1 µM is below 0% and the activity at 10 µM was below 0%.

For the molecule `CCOc1ccccc1-c1ccc(CC(=O)NCc2cccc(F)c2)cn1` [KX1-324, 2-[6-(2-Ethoxy-phenyl)-pyridin-3-yl]-N-(3-fluoro-benzyl)-acetamide], in the assay with HT29 cell line, the activity at 0.05 µM came out at 91%, the activity at 0.5 µM worked out at 95.7% and the activity at 5 µM turned out to be 0%. Besides, in the assay on c-Src 3T3 cells (Mus musculus), the activity at 0.1 µM was found to be 96%, the activity at 1 µM is 90% and the activity at 10 µM was below 0%.

Take `O=C(Cc1ccc(-c2ccc(F)cc2)nc1)NCc1cccc(F)c1` [KX1-320, N-(3-Fluoro-benzyl)-2-[6-(4-fluoro-phenyl)-pyridin-3-yl]-acetamide]: in the assay on HT29 cell line, the activity at 0.05 µM was 111%, the activity at 0.5 µM stood at 132% and the activity at 5 µM came to 86.2%. Moreover, in the assay on c-Src 3T3 cells (Mus musculus), the activity at 0.1 µM was 90.4%, the activity at 1 µM was determined as 86.5% and the activity at 10 µM was 73.1%.

For `O=C(Cc1ccc(-c2ccc(OCCN3CCOCC3)cc2)cn1)NCc1cccc(F)c1` [KX2-377], in the assay with HT29 cell line, the GI50 turned out to be 111 nM, the activity at 0.05 µM was below 0%, the activity at 0.5 µM is below 0% and the activity at 5 µM is below 0%. Further, in the assay on c-Src 3T3 cells (Mus musculus), the activity at 0.1 µM is below 0%, the activity at 1 µM was below 0% and the activity at 10 µM was below 0%. Besides, the GI50 with c-Src 3T3 cells (Mus musculus, read-out: GI50) stood at 118 nM.

With `O=C(Cc1ccc(-c2ccccc2)cc1)NCc1cc(O)cc(OCc2ccccc2)c1` [KX1-306], in the assay on HT29 cell line, the activity at 0.05 µM worked out at 124%, the activity at 0.5 µM was below 0% and the activity at 5 µM is below 0%. Moreover, in the assay on c-Src 3T3 cells (Mus musculus), the activity at 0.1 µM stood at 47%, the activity at 1 µM was below 0% and the activity at 10 µM was below 0%.

Consider `O=C(Cc1ccc(-c2ccccc2)cc1F)NCc1cccc(F)c1` [KX1-313, N-(3-fluorobenzyl)-4-phenyl-2-fluorophenylacetamide], for which, in the assay on HT29 cell line, the activity at 0.05 µM stood at 80.2%, the activity at 0.5 µM was below 0% and the activity at 5 µM was below 0%. In the assay with c-Src 3T3 cells (Mus musculus), the activity at 0.1 µM was determined as 91.6%, the activity at 1 µM is below 0% and the activity at 10 µM was below 0%.

In the case of `O=C(Cc1ccc(-c2ccccc2F)cc1)NCc1cccc(F)c1` [KX1-309], in the assay with HT29 cell line, the activity at 0.05 µM worked out at 29.5%, the activity at 0.5 µM was below 0% and the activity at 5 µM was below 0%. Moreover, in the assay with c-Src 3T3 cells (Mus musculus), the activity at 0.1 µM was below 0%, the activity at 1 µM was below 0% and the activity at 10 µM is below 0%.

`CCc1ccc(-c2ccc(CC(=O)NCc3cccc(F)c3)cn2)cc1` [KX1-318, 2-[6-(4-Ethyl-phenyl)-pyridin-3-yl]-N-(3-fluoro-benzyl)-acetamide]: in the assay on HT29 cell line, the activity at 0.05 µM turned out to be 165%, the activity at 0.5 µM worked out at 93.2% and the activity at 5 µM is below 0%. In the assay on c-Src 3T3 cells (Mus musculus), the activity at 0.1 µM worked out at 91.4%, the activity at 1 µM was found to be 71% and the activity at 10 µM is below 0%.

As to `O=C(Cc1ccc(-c2ccc(OCCN3CCOCC3)cc2F)cn1)NCc1cccc(F)c1` [KX2-392], the GI50 in the assay with HT29 cell line was 21 nM; with c-Src 3T3 cells (Mus musculus, read-out: GI50) it was 13 nM.

Regarding `CC(C)COc1cc(F)cc(CNC(=O)Cc2ccc(-c3ccc(N4CCOCC4)cc3)cn2)c1` [KX2-370], in the assay on HT29 cell line, the activity at 0.05 µM was 112%, the activity at 0.5 µM turned out to be 93% and the activity at 5 µM was 81%. In the assay with c-Src 3T3 cells (Mus musculus), the activity at 0.1 µM was determined as 104%, the activity at 1 µM amounted to 105% and the activity at 10 µM turned out to be 106%.

Regarding `CCOc1ccc(-c2ccc(CC(=O)NCc3cc(F)cc(N4CCN(C)CC4)c3)nc2)cc1` [KX2-388], the GI50 with HT29 cell line was 906 nM; with c-Src 3T3 cells (Mus musculus, read-out: GI50), above 1600 nM.

`O=C(Cc1cccc(-c2ccccc2)c1)NCc1cccc(F)c1` [KX1-307]: in the assay with HT29 cell line, the activity at 0.05 µM is 85.9%, the activity at 0.5 µM was 93.8% and the activity at 5 µM amounted to 39.4%. In addition, in the assay on c-Src 3T3 cells (Mus musculus), the activity at 0.1 µM came to 65.7%, the activity at 1 µM turned out to be 45.3% and the activity at 10 µM came out at 4.2%.

As to `O=C(Cc1ccc(-c2ccc(CN3CCCCC3)cc2)cn1)NCc1cccc(F)c1` [KX2-364], in the assay with HT29 cell line, the activity at 0.05 µM is 105%, the activity at 0.5 µM worked out at 80% and the activity at 5 µM is below 0%. For the same molecule, in the assay with c-Src 3T3 cells (Mus musculus), the activity at 0.1 µM worked out at 92%, the activity at 1 µM came out at 81% and the activity at 10 µM is below 0%.

On to `CCOc1cccc(-c2ccc(CC(=O)NCc3cccc(F)c3)cn2)c1` [KX1-322, 2-[6-(3-Ethoxy-phenyl)-pyridin-3-yl]-N-(3-fluoro-benzyl)-acetamide], for which, in the assay with HT29 cell line, the activity at 0.05 µM worked out at 114%, the activity at 0.5 µM is 87.2% and the activity at 5 µM was below 0%. In addition, in the assay with c-Src 3T3 cells (Mus musculus), the activity at 0.1 µM came out at 94.6%, the activity at 1 µM was below 0% and the activity at 10 µM is below 0%. Also, in the assay with c-Src 3T3 cells (Mus musculus, read-out: GI50), the GI50 is 3730 nM.

Consider `O=C(Cc1ccc(-c2ccc(CN3CCOCC3)cc2)cn1)NCc1cccc(F)c1` [KX2-362], for which, in the assay with HT29 cell line, the 50% growth inhibitory concentration (GI50) worked out at 56 nM, the activity at 0.05 µM stood at 86%, the activity at 0.5 µM was below 0% and the activity at 5 µM was below 0%. For the same molecule, in the assay with c-Src 3T3 cells (Mus musculus), the activity at 0.1 µM worked out at 101%, the activity at 1 µM was below 0% and the activity at 10 µM is below 0%. Also, the GI50 with c-Src 3T3 cells (Mus musculus, read-out: GI50) amounted to 56 nM.

Turning to `CCOc1ccc(-c2ccc(CC(=O)NCc3cc(F)cc(OCC4CCN(C)CC4)c3)nc2)cc1` [KX2-381], in the assay on HT29 cell line, the GI50 came to 375 nM, the activity at 0.05 µM is 58%, the activity at 0.5 µM was below 0% and the activity at 5 µM is below 0%. Also, in the assay on c-Src 3T3 cells (Mus musculus), the activity at 0.1 µM was 116%, the activity at 1 µM was below 0% and the activity at 10 µM is below 0%. In the assay on c-Src 3T3 cells (Mus musculus, read-out: GI50), the GI50 was found to be 914 nM.
